In patent publication EP4464309A1, “ANTIDANDRUFF COMPOSITION COMPRISING 1-ACETOXYCHAVICOL ACETATE” (Analyticon Discovery GmbH, priority 2023, dated 2024):
Read-outs that look alike come from different tables or passages of the source.

What was measured:
[1] = Chemical stability of 2% solutions of 1-acetoxychavicol acetate on storage, followed by HPLC; type: physicochemical
Description: 1-acetoxychavicol acetate was dissolved as a 2% solution in water ethanol (70:30), an aqueous shampoo formulation, and in various vegetable oils. […] Table 1 Assessment of stability of 2% solutions of 1-acetoxychavicol acetate in wt.-percent over time

[2] = as above; type: physicochemical; details: solutions of up to 5 wt.-percent in vegetable oil, e.g. sunflower or rape seed oil; even at higher temperatures
[3] = cited from earlier work

## C=CC(OC(C)=O)c1ccc(OC(C)=O)cc1 (centres unmarked) [1-acetoxychavicol acetate]
[1]; 2% solution in the shampoo formulation
  degradation: fast degradation
[1]; 2% solution in vegetable oils, after 20 weeks of storage
  degradation: no relevant degradation
[1]; 2% solution in water (water ethanol 70:30)
  degradation: fast degradation
[1]; Aq. Ethanol, storage time 0 w
  stability of 2% solutions of 1-acetoxychavicol acetate: 100 wt.-percent
[1]; Aq. Ethanol, storage time 1 w
  stability of 2% solutions of 1-acetoxychavicol acetate: 80 wt.-percent
[1]; Aq. Ethanol, storage time 2 w
  stability of 2% solutions of 1-acetoxychavicol acetate: 60 wt.-percent
[1]; Aq. Ethanol, storage time 3 w
  stability of 2% solutions of 1-acetoxychavicol acetate: 50 wt.-percent
[1]; Aq. Ethanol, storage time 4 w
  stability of 2% solutions of 1-acetoxychavicol acetate: 30 wt.-percent
[1]; Aq. Ethanol, storage time 5 w
  stability of 2% solutions of 1-acetoxychavicol acetate: 20 wt.-percent
[1]; Aq. Ethanol, storage time 6 w
  stability of 2% solutions of 1-acetoxychavicol acetate: 0 wt.-percent
[1]; Aq. Ethanol, storage time 7 w
  stability of 2% solutions of 1-acetoxychavicol acetate: 0 wt.-percent
[1]; Aq. Ethanol, storage time 8 w
  stability of 2% solutions of 1-acetoxychavicol acetate: 0 wt.-percent
[1]; Aq. Ethanol, storage time 9 w
  stability of 2% solutions of 1-acetoxychavicol acetate: 0 wt.-percent
[1]; Aq. Ethanol, storage time 10 w
  stability of 2% solutions of 1-acetoxychavicol acetate: 0 wt.-percent
[1]; Aq. Ethanol, storage time 15 w
  stability of 2% solutions of 1-acetoxychavicol acetate: 0 wt.-percent
[1]; Aq. Ethanol, storage time 20 w
  stability of 2% solutions of 1-acetoxychavicol acetate: 0 wt.-percent
[1]; HO Rape seed oil, storage time 0 w
  stability of 2% solutions of 1-acetoxychavicol acetate: 100 wt.-percent
[1]; HO Rape seed oil, storage time 1 w
  stability of 2% solutions of 1-acetoxychavicol acetate: 100 wt.-percent
[1]; HO Rape seed oil, storage time 2 w
  stability of 2% solutions of 1-acetoxychavicol acetate: 100 wt.-percent
[1]; HO Rape seed oil, storage time 3 w
  stability of 2% solutions of 1-acetoxychavicol acetate: 100 wt.-percent
[1]; HO Rape seed oil, storage time 4 w
  stability of 2% solutions of 1-acetoxychavicol acetate: 100 wt.-percent
[1]; HO Rape seed oil, storage time 5 w
  stability of 2% solutions of 1-acetoxychavicol acetate: 100 wt.-percent
[1]; HO Rape seed oil, storage time 6 w
  stability of 2% solutions of 1-acetoxychavicol acetate: 100 wt.-percent
[1]; HO Rape seed oil, storage time 7 w
  stability of 2% solutions of 1-acetoxychavicol acetate: 100 wt.-percent
[1]; HO Rape seed oil, storage time 8 w
  stability of 2% solutions of 1-acetoxychavicol acetate: 100 wt.-percent
[1]; HO Rape seed oil, storage time 9 w
  stability of 2% solutions of 1-acetoxychavicol acetate: 100 wt.-percent
[1]; HO Rape seed oil, storage time 10 w
  stability of 2% solutions of 1-acetoxychavicol acetate: 100 wt.-percent
[1]; HO Rape seed oil, storage time 15 w
  stability of 2% solutions of 1-acetoxychavicol acetate: 100 wt.-percent
[1]; HO Rape seed oil, storage time 20 w
  stability of 2% solutions of 1-acetoxychavicol acetate: 100 wt.-percent
[1]; HO Sunflower oil, storage time 0 w
  stability of 2% solutions of 1-acetoxychavicol acetate: 100 wt.-percent
[1]; HO Sunflower oil, storage time 1 w
  stability of 2% solutions of 1-acetoxychavicol acetate: 100 wt.-percent
[1]; HO Sunflower oil, storage time 2 w
  stability of 2% solutions of 1-acetoxychavicol acetate: 100 wt.-percent
[1]; HO Sunflower oil, storage time 3 w
  stability of 2% solutions of 1-acetoxychavicol acetate: 100 wt.-percent
[1]; HO Sunflower oil, storage time 4 w
  stability of 2% solutions of 1-acetoxychavicol acetate: 100 wt.-percent
[1]; HO Sunflower oil, storage time 5 w
  stability of 2% solutions of 1-acetoxychavicol acetate: 100 wt.-percent
[1]; HO Sunflower oil, storage time 6 w
  stability of 2% solutions of 1-acetoxychavicol acetate: 100 wt.-percent
[1]; HO Sunflower oil, storage time 7 w
  stability of 2% solutions of 1-acetoxychavicol acetate: 100 wt.-percent
[1]; HO Sunflower oil, storage time 8 w
  stability of 2% solutions of 1-acetoxychavicol acetate: 100 wt.-percent
[1]; HO Sunflower oil, storage time 9 w
  stability of 2% solutions of 1-acetoxychavicol acetate: 100 wt.-percent
[1]; HO Sunflower oil, storage time 10 w
  stability of 2% solutions of 1-acetoxychavicol acetate: 100 wt.-percent
[1]; HO Sunflower oil, storage time 15 w
  stability of 2% solutions of 1-acetoxychavicol acetate: 100 wt.-percent
[1]; HO Sunflower oil, storage time 20 w
  stability of 2% solutions of 1-acetoxychavicol acetate: 90 wt.-percent
[1]; Olive oil, storage time 0 w
  stability of 2% solutions of 1-acetoxychavicol acetate: 100 wt.-percent
[1]; Olive oil, storage time 1 w
  stability of 2% solutions of 1-acetoxychavicol acetate: 100 wt.-percent
[1]; Olive oil, storage time 2 w
  stability of 2% solutions of 1-acetoxychavicol acetate: 100 wt.-percent
[1]; Olive oil, storage time 3 w
  stability of 2% solutions of 1-acetoxychavicol acetate: 100 wt.-percent
[1]; Olive oil, storage time 4 w
  stability of 2% solutions of 1-acetoxychavicol acetate: 100 wt.-percent
[1]; Olive oil, storage time 5 w
  stability of 2% solutions of 1-acetoxychavicol acetate: 100 wt.-percent
[1]; Olive oil, storage time 6 w
  stability of 2% solutions of 1-acetoxychavicol acetate: 100 wt.-percent
[1]; Olive oil, storage time 7 w
  stability of 2% solutions of 1-acetoxychavicol acetate: 95 wt.-percent
[1]; Olive oil, storage time 8 w
  stability of 2% solutions of 1-acetoxychavicol acetate: 95 wt.-percent
[1]; Olive oil, storage time 9 w
  stability of 2% solutions of 1-acetoxychavicol acetate: 95 wt.-percent
[1]; Olive oil, storage time 10 w
  stability of 2% solutions of 1-acetoxychavicol acetate: 90 wt.-percent
[1]; Olive oil, storage time 15 w
  stability of 2% solutions of 1-acetoxychavicol acetate: 90 wt.-percent
[1]; Olive oil, storage time 20 w
  stability of 2% solutions of 1-acetoxychavicol acetate: 85 wt.-percent
[1]; Peanut oil, storage time 0 w
  stability of 2% solutions of 1-acetoxychavicol acetate: 100 wt.-percent
[1]; Peanut oil, storage time 1 w
  stability of 2% solutions of 1-acetoxychavicol acetate: 100 wt.-percent
[1]; Peanut oil, storage time 2 w
  stability of 2% solutions of 1-acetoxychavicol acetate: 100 wt.-percent
[1]; Peanut oil, storage time 3 w
  stability of 2% solutions of 1-acetoxychavicol acetate: 100 wt.-percent
[1]; Peanut oil, storage time 4 w
  stability of 2% solutions of 1-acetoxychavicol acetate: 100 wt.-percent
[1]; Peanut oil, storage time 5 w
  stability of 2% solutions of 1-acetoxychavicol acetate: 100 wt.-percent
[1]; Peanut oil, storage time 6 w
  stability of 2% solutions of 1-acetoxychavicol acetate: 100 wt.-percent
[1]; Peanut oil, storage time 7 w
  stability of 2% solutions of 1-acetoxychavicol acetate: 95 wt.-percent
[1]; Peanut oil, storage time 8 w
  stability of 2% solutions of 1-acetoxychavicol acetate: 95 wt.-percent
[1]; Peanut oil, storage time 9 w
  stability of 2% solutions of 1-acetoxychavicol acetate: 95 wt.-percent
[1]; Peanut oil, storage time 10 w
  stability of 2% solutions of 1-acetoxychavicol acetate: 90 wt.-percent
[1]; Peanut oil, storage time 15 w
  stability of 2% solutions of 1-acetoxychavicol acetate: 90 wt.-percent
[1]; Peanut oil, storage time 20 w
  stability of 2% solutions of 1-acetoxychavicol acetate: 85 wt.-percent
[1]; Sesame oil, storage time 0 w
  stability of 2% solutions of 1-acetoxychavicol acetate: 100 wt.-percent
[1]; Sesame oil, storage time 1 w
  stability of 2% solutions of 1-acetoxychavicol acetate: 100 wt.-percent
[1]; Sesame oil, storage time 2 w
  stability of 2% solutions of 1-acetoxychavicol acetate: 100 wt.-percent
[1]; Sesame oil, storage time 3 w
  stability of 2% solutions of 1-acetoxychavicol acetate: 100 wt.-percent
[1]; Sesame oil, storage time 4 w
  stability of 2% solutions of 1-acetoxychavicol acetate: 100 wt.-percent
[1]; Sesame oil, storage time 5 w
  stability of 2% solutions of 1-acetoxychavicol acetate: 100 wt.-percent
[1]; Sesame oil, storage time 6 w
  stability of 2% solutions of 1-acetoxychavicol acetate: 100 wt.-percent
[1]; Sesame oil, storage time 7 w
  stability of 2% solutions of 1-acetoxychavicol acetate: 95 wt.-percent
[1]; Sesame oil, storage time 8 w
  stability of 2% solutions of 1-acetoxychavicol acetate: 95 wt.-percent
[1]; Sesame oil, storage time 9 w
  stability of 2% solutions of 1-acetoxychavicol acetate: 95 wt.-percent
[1]; Sesame oil, storage time 10 w
  stability of 2% solutions of 1-acetoxychavicol acetate: 90 wt.-percent
[1]; Sesame oil, storage time 15 w
  stability of 2% solutions of 1-acetoxychavicol acetate: 90 wt.-percent
[1]; Sesame oil, storage time 20 w
  stability of 2% solutions of 1-acetoxychavicol acetate: 85 wt.-percent
[1]; Shampoo, storage time 0 w
  stability of 2% solutions of 1-acetoxychavicol acetate: 100 wt.-percent
[1]; Shampoo, storage time 1 w
  stability of 2% solutions of 1-acetoxychavicol acetate: 80 wt.-percent
[1]; Shampoo, storage time 2 w
  stability of 2% solutions of 1-acetoxychavicol acetate: 60 wt.-percent
[1]; Shampoo, storage time 3 w
  stability of 2% solutions of 1-acetoxychavicol acetate: 55 wt.-percent
[1]; Shampoo, storage time 4 w
  stability of 2% solutions of 1-acetoxychavicol acetate: 50 wt.-percent
[1]; Shampoo, storage time 5 w
  stability of 2% solutions of 1-acetoxychavicol acetate: 40 wt.-percent
[1]; Shampoo, storage time 6 w
  stability of 2% solutions of 1-acetoxychavicol acetate: 35 wt.-percent
[1]; Shampoo, storage time 7 w
  stability of 2% solutions of 1-acetoxychavicol acetate: 30 wt.-percent
[1]; Shampoo, storage time 8 w
  stability of 2% solutions of 1-acetoxychavicol acetate: 25 wt.-percent
[1]; Shampoo, storage time 9 w
  stability of 2% solutions of 1-acetoxychavicol acetate: 20 wt.-percent
[1]; Shampoo, storage time 10 w
  stability of 2% solutions of 1-acetoxychavicol acetate: 10 wt.-percent
[1]; Shampoo, storage time 15 w
  stability of 2% solutions of 1-acetoxychavicol acetate: 0 wt.-percent
[1]; Shampoo, storage time 20 w
  stability of 2% solutions of 1-acetoxychavicol acetate: 0 wt.-percent
[1]; solution in rapeseed oil
  stability: particularly stable
[1]; solution in sunflower oil
  stability: particularly stable
[2]
  stability: remains stable over months
[3]; in aqueous solution
  stability: instable
[3]; in vegetable oil, at up to 120°C
  time stable: at least 1 h
[3]; solution with 30-40% ethanol, neutral pH, room temperature
  stability: stable for several month
[3]; under thermal treatment, e.g. distillation
  stability: instable
